In patent publication US8569344B2, “N-piperidinyl acetamide derivatives as calcium channel blockers” (Zalicus Pharmaceuticals Ltd., priority 2008, dated 2013):
pIC50: −log10 of the molar value.

Experiments:
[1] = biological target: T1, human α1H T-type channels (Homo sapiens, UniProt O95180); test: T-type calcium channel block, whole cell patch clamp in HEK cells (α1H); format: cell-based; details: HEK cells, patch clamp, mainly non-inactivated protocol; values above 10 μM shown as 10 μM; read-out: T-type Calcium Channel Block α1H IC50
T1 construct: expressed in transfected cells; host or cells: HEK 293

[2] = biological target: T2, human α1G T-type channels (Homo sapiens, UniProt O43497); test: T-type calcium channel block, whole cell patch clamp in HEK cells (α1G); format: cell-based; details: HEK cells, patch clamp, mainly non-inactivated protocol; values above 10 μM shown as 10 μM, below 0.30 μM shown as 0.30 μM; read-out: T-type Calcium Channel Block α1G IC50
T2 construct: expressed in transfected cells; host or cells: HEK 293
T2 sequence (O43497 whole entry): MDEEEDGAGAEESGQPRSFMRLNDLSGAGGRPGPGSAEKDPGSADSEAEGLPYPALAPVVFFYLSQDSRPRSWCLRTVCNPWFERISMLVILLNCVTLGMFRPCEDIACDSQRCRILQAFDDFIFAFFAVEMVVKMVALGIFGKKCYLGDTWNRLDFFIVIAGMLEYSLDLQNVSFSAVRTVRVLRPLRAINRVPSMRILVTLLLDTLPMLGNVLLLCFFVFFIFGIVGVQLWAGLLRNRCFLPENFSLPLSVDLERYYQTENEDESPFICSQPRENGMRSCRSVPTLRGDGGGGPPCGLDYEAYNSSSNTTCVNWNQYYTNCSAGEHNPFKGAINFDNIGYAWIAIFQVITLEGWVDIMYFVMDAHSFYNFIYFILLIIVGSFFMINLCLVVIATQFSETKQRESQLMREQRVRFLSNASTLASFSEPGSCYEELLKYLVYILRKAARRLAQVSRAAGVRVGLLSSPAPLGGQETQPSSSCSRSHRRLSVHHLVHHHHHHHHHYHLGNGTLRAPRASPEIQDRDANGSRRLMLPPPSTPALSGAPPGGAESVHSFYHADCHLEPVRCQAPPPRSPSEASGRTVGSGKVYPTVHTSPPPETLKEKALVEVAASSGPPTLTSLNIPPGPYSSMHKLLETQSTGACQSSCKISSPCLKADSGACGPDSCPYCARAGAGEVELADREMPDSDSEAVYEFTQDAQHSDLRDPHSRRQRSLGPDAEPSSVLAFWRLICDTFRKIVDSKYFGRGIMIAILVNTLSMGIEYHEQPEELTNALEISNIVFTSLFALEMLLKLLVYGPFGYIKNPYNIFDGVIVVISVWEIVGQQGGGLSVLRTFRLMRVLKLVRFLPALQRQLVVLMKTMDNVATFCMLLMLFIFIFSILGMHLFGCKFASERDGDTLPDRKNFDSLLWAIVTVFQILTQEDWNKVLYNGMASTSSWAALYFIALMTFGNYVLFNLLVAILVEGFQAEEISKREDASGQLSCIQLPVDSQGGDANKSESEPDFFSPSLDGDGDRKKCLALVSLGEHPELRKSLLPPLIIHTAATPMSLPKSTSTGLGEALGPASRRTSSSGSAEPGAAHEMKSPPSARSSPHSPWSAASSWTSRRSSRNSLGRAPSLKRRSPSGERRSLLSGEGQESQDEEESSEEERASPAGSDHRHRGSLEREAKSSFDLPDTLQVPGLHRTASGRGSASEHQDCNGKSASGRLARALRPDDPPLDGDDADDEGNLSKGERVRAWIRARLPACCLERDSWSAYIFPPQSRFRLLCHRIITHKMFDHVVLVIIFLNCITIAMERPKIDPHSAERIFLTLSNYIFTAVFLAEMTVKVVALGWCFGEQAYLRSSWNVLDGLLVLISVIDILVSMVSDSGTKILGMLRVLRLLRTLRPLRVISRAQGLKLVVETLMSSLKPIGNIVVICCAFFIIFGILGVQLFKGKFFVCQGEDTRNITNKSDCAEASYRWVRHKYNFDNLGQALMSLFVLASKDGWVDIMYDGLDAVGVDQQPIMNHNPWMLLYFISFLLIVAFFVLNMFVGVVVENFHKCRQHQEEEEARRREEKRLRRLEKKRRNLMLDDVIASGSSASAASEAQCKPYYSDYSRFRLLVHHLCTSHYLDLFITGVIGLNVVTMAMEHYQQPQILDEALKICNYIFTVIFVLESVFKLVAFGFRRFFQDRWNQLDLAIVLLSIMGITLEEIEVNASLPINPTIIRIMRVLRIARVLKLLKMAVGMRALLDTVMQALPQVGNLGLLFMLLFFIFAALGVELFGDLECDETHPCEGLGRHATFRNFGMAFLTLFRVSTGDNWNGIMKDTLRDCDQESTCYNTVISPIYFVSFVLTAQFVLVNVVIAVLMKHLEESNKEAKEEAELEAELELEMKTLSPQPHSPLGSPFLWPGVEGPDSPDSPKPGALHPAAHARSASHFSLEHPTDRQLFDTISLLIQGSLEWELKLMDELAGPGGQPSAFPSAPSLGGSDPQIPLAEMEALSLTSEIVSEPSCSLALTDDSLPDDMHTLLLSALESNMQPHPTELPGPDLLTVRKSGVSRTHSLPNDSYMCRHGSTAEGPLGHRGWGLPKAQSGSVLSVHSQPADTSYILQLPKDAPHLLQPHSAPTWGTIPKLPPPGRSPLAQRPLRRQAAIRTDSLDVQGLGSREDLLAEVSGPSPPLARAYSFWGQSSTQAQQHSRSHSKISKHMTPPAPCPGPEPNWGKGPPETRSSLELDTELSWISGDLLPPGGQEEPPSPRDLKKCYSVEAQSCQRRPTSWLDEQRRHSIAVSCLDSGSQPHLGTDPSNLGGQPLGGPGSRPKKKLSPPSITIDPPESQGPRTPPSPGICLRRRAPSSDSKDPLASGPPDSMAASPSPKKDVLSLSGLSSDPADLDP

T1 sequence (O95180 whole entry): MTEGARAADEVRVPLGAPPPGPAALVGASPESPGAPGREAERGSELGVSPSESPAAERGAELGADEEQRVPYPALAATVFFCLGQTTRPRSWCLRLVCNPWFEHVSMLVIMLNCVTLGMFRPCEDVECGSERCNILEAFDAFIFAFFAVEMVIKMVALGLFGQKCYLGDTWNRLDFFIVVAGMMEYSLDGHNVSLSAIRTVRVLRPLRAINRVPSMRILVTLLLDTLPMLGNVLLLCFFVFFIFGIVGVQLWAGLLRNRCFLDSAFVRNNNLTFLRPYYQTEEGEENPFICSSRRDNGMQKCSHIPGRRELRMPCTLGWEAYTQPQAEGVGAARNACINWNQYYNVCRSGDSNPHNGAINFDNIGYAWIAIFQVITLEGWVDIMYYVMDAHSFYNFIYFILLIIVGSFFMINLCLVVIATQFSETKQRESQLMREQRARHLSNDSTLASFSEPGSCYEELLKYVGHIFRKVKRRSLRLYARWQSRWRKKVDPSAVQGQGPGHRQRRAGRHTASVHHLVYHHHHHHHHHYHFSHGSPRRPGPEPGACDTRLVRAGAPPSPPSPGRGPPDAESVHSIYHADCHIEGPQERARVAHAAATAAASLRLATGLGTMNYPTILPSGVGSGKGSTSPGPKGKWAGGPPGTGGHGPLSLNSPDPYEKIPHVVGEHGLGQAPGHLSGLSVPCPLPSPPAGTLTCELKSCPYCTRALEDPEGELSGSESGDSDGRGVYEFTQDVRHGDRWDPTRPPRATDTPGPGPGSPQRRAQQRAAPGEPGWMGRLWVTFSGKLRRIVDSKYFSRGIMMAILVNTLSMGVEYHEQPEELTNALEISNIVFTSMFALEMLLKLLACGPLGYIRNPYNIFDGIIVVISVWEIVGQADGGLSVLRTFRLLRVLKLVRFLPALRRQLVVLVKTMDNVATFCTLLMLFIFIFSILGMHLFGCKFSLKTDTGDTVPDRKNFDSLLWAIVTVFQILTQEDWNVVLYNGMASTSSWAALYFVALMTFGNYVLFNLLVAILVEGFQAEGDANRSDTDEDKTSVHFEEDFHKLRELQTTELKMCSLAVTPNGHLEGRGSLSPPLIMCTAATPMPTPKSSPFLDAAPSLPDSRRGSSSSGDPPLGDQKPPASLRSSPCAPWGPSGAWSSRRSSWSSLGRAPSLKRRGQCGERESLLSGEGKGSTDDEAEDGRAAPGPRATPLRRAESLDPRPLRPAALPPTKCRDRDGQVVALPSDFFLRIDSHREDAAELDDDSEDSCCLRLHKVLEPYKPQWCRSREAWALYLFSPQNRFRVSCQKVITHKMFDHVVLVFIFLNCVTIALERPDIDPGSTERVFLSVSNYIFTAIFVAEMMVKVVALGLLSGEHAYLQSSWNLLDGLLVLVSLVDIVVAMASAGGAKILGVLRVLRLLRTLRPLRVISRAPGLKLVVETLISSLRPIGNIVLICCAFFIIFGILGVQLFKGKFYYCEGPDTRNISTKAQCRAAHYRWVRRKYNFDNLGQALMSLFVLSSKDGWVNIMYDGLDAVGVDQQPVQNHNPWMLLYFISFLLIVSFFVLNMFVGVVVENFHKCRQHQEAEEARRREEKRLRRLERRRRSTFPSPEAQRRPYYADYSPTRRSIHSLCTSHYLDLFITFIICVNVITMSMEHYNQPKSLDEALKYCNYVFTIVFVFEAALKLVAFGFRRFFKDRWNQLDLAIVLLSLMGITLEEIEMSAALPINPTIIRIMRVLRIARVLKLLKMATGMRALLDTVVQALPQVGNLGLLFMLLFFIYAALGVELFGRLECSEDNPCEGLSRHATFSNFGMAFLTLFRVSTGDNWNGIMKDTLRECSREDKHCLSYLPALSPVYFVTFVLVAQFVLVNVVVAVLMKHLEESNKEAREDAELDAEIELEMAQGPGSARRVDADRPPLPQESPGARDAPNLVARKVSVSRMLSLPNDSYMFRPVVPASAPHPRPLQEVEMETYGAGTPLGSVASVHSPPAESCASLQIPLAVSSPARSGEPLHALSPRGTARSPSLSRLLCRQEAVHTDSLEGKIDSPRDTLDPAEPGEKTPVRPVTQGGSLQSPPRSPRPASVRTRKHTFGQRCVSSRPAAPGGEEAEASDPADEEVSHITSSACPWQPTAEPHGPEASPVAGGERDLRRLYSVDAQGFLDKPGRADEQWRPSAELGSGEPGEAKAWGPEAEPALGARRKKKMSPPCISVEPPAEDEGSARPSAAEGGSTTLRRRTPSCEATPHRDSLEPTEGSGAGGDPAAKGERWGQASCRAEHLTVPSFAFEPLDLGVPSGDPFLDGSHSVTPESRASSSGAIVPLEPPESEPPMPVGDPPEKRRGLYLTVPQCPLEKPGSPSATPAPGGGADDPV

SMILES	pIC50 [1]	pIC50 [2]
CS(=O)(=O)c1cc(C(=O)NCC2CCN(CC(=O)NC3CCCC3)CC2)cc(C(F)(F)F)c1 [Compound 585, N-((1-(2-(cyclopentylamino)-2-oxoethyl)piperidin-4-yl)methyl)-3-(methylsulfonyl)-5-(trifluoromethyl)benzamide]	< 5.00	< 5.00
CN(CCN1CCC(CNC(=O)c2cc(F)cc(C(F)(F)F)c2)CC1)C(=O)NC1CCCCC1 [Compound 525, N-((1-(2-(3-cyclohexyl-1-methylureido)ethyl)piperidin-4-yl)methyl)-3-fluoro-5-(trifluoromethyl) benzamide]	6.11	5.63
COc1cc(C(=O)NCC2CCN(CCNS(=O)(=O)C(F)(F)F)CC2)cc(C(F)(F)F)c1 [Compound 327, 3-methoxy-5-(trifluoromethyl)-N-((1-(2-(trifluoromethylsulfonamido)ethyl)piperidin-4-yl)methyl)benzamide]	6.13	> 6.52
CC(C(=O)NC1(C)CCCCC1)N1CCC(CNC(=O)c2cc(F)cc(Cl)c2)CC1 (centres unmarked) [Compound 550, 3-chloro-5-fluoro-N-((1-(1-(1-methylcyclohexylamino)-1-oxopropan-2-yl)piperidin-4-yl)methyl)benzamide]	7.70	> 6.52
CN(CCN1CCC(CNC(=O)c2cc(F)cc(C(F)(F)F)c2)CC1)C(=O)NC(C)(C)C [Compound 523, N-((1-(2-(3-tert-butyl-1-methylureido)ethyl)piperidin-4-yl)methyl)-3-fluoro-5-(trifluoromethyl) benzamide]	6.04	5.24
CC(C)S(=O)(=O)NCCN1CCC(CNC(=O)c2cccc(Cl)c2)CC1 [Compound 236, 3-chloro-N-((1-(2-(1-methylethylsulfonamido)ethyl)piperidin-4-yl)methyl)benzamide]	5.76	6.07
CN(CC(=O)N1CCC(CNC(=O)c2cc(F)cc(C(F)(F)F)c2)CC1)C1CCCCC1 [Compound 272, N-((1-(2-(cyclohexyl(methyl)amino)acetyl)piperidin-4-yl)methyl)-3-fluoro-5-(trifluoromethyl)benzamide]	< 5.00	5.55
O=C(CCC(F)(F)F)NCCN1CCC(CNC(=O)c2cccc(Cl)c2)CC1 [Compound 315, 3-chloro-N-((1-(2-(4,4,4-trifluorobutanamido)ethyl)piperidin-4-yl)methyl)benzamide]	5.83	5.00
Cc1cc(C)cc(C(=O)NCC2CCN(CC(=O)NC3(C)CCC3)CC2)c1 [Compound 475, 3,5-dimethyl-N-((1-(2-(1-methylcyclobutylamino)-2-oxoethyl)piperidin-4-yl)methyl) benzamide]	6.77	> 6.52
Cc1cc(C)cc(C(=O)NCC2CCN(CC(=O)NC(C)C)CC2)c1 [Compound 436, N-((1-(2-(isopropylamino)-2-oxoethyl)piperidin-4-yl)methyl)-3,5-dimethylbenzamide]	< 5.00	< 5.00
O=C(NCC1CCN(CCNS(=O)(=O)C2CC2)CC1)c1cccc(OC(F)(F)F)c1 [Compound 234, N-((1-(2-(cyclopropanesulfonamido)ethyl)piperidin-4-yl)methyl)-3-(trifluoromethoxy)benzamide]	6.01	5.84
O=C(CN1CCC(CNC(=O)c2cccc(OC(F)(F)F)c2)CC1)NC1CCCC1 [Compound 536, N-((1-(2-(cyclopentylamino)-2-oxoethyl)piperidin-4-yl)methyl)-3-(trifluoromethoxy)benzamide]	6.92	> 6.52
COc1cc(F)cc(C(=O)NCC2CCN(CC(=O)NCC(C)(C)F)CC2)c1 [Compound 557, 3-fluoro-N-((1-(2-(2-fluoro-2-methylpropylamino)-2-oxoethyl)piperidin-4-yl)methyl)-5-methoxy-benzamide]	5.88	5.45
